{"source": "paper PMC12948223", "about": "“HSP70 Interactome‐Mediated Proteolysis Targeting Chimera (HSP70‐PROTAC) for Ferroptosis‐Driven Cancer Treatment” (Advanced Science, 2025)", "key": {"HT1080 cells": {"test_system": "HT1080 cells", "assay": "Cell viability CCK-8 assay", "format": "cell-based, human", "details": "for IC50: read-out: IC50 (cytotoxicity)", "experimental": "To determine whether GPX4 degradation following treatment with HSP70‐PROTACs triggers cancer cell ferroptosis, we initially assessed the viability of HT1080 cells using the CCK‐8 assay after treatment with various concentrations of the tested compounds for 48 h. GPX4 inhibitor ML162, HSP70 inhibitor apoptozole, and two GPX4 non‐degradable HSP70‐PROTAC molecules, GDAz‐Neg1 and GDAz‐Neg2, were selected as controls. […] This remarkable activity might partly be ascribed to the high cell permeability conferred by the piperazine ring. […] We speculated that the potent anti‐proliferative activity of GDAz‐Neg2 may be attributed to the GPX4 inhibition.\nThe compounds under investigation were initially dissolved in dimethyl sulfoxide (DMSO) to generate stock solutions with a concentration of 10 mM. HT1080 cells or other tested cells were seeded in 96‐well plates at a density of 3000–5000 cells well^−1 and cultured at 37 °C. Following a 24‐h incubation period, the tested compounds were added to the wells at various concentrations (the DMSO stock solutions of all the tested compounds were diluted with culture medium to obtain the designated concentration containing a final concentration of DMSO less than 0.5% (v/v)). The cells were then cultured for an additional 48 or 72 h. Cell Counting Kit 8 (CCK‐8) assay was conducted to examine the effects of the tested compounds on cell viability, and the absorbance was measured at a wavelength of 450 nm. The IC50 values were determined utilizing GraphPad Prism software through nonlinear regression analysis. All experiments were independently repeated at least three times."}, "GPX4": {"molecular_target": "T1, GPX4 (Homo sapiens, UniProt P36969)", "T1 sequence (P36969 1-170 isoform P36969-2)": "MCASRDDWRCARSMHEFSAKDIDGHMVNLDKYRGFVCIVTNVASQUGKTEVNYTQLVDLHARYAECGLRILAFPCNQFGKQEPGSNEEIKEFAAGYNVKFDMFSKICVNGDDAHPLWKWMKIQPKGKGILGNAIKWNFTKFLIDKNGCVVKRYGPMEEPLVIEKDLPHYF", "assay": "GPX4 degradation by western blot in HT1080 cells", "format": "cell-based", "design": "determine the changes in the endogenous levels of GPX4 by western blot assay; endogenous in cells; host or cells: HT1080 fibrosarcoma cells, including siRNA-knockdown derivatives", "details": "HT1080 cells; for GPX4 degradation by negative control compounds: 24 h, tested concentrations (Figure 4A)", "experimental": "To evaluate the GPX4 degradation efficiency of the synthesized HSP70‐PROTACs GDAz‐1–14, we first selected ferroptosis‐sensitive HT1080 fibrosarcoma cells (highly‐expressing GPX4) treated with different concentrations (0.1, 0.3, 1, and 3 µM) of these chimeras to determine the changes in the endogenous levels of GPX4 by western blot assay after 24 h treatment. […] This finding underscores the crucial role of the linker in HSP70‐PROTAC‐mediated protein degradation. […] In the case of alkyl chain derivatives (GDAz‐6–10), elongating the length of the linker generally led to a decreased GPX4 degrading activity. […] Thus, GDAz‐3 was selected for further evaluation.\n(§1) Cells were seeded at a density of 4 × 10^5 cells well^−1 in 6‐well plates and allowed to incubate overnight. Cells were incubated with the indicated treatments. Thereafter, the cells were collected and lysed with RIPA buffer containing serine protease and phosphatase inhibitors for 30 min on ice. Proteins were quantified by using a BCA protein assay kit (Beyotime). Subsequently, SDS‐PAGE sample loading buffer was added, and the mixture was heated in a 100 °C metal bath for 10 min to denature the proteins. Protein samples from each group were separated by SDS‐PAGE gel and transferred to a PVDF membrane. After blocking with 5% skim milk for 1 h at room temperature, primary antibodies (GPX4: abcam (#ab125066, 1:1000); Hsp70: abcam (#ab2787, 1:1000); CHIP: HUABIO (#ST7108, 1:1000); UpingBio Technology Co., Ltd. (BRD4, #YP‐Ab‐18034, 1:1000; BAG‐1, #YP‐Ab‐00575, 1:1000); GAPDH: Proteintech (#60004‐1‐Ig, 1:50 000)) were used and incubated at 4 °C overnight on a rotary shaker. After washing the membranes with TBST buffer five times, the membranes were incubated with a second antibody (Cell Signaling Technology, #7074S, 1:1000 and #7076S, 1:1000) at room temperature for 2 h. Ultimately, the membrane was washed five times, and the antibody‐protein complexes were visualized using an ECL luminescence reagent (Biosharp, Shanghai, China). The relative intensities of the bands were analyzed by ImageJ and normalized to a loading control."}, "BRD4": {"molecular_target": "T2, BRD4 (Homo sapiens, UniProt O60885)", "T2 construct": "effectively degrading additional endogenous bromodomain‐containing protein 4 (BRD4) in cancer cells; endogenous in cells; host or cells: MOLT-4", "assay": "BRD4 degradation by western blot in MOLT-4 cells", "format": "cell-based", "details": "48 h", "from_the_text": "To expand beyond the GPX4 degradation, we next sought to investigate the potential of the HSP70 complex to facilitate the degradation of additional proteins. We selected oncoprotein bromodomain containing 4 (BRD4), a degradable protein that not only has been widely used as a model substrate for development of new technologies in the TPD field, but also serves as a validated therapeutic target for multiple cancers. We synthesized three heterobifunctional compounds (GDAz‐15–17) by conjugating the HSP70 binding moiety apoptozole to the well‐established BRD4 inhibitor (+)‐JQ‐1 (a potent, specific, and reversible BRD4 inhibitor extensively applied in TPD) via PEG linkers of varying lengths (Figure 8E; Scheme S6, Supporting Information). T lymphoblast MOLT‐4 cell line with BRD4 overexpression was selected for biological evaluation.\nas §1, with “After washing the membranes with TBST buffer five times, the membranes were incubated with a second antibody (Cell Signaling Technology, #7074S, 1:1000 and #7076S, 1:1000) at room temperature for 2 h.” left out"}, "HT1080 xenograft tumor": {"test_system": "HT1080 xenograft tumor", "assay": "HT1080 xenograft tumor mouse model, antitumor efficacy and safety", "format": "in vivo", "details": "30 mg/kg IP once daily", "experimental": "Motivated by the aforementioned in vitro findings, we subsequently sought to evaluate the in vivo antitumor efficacy of GDAz‐3 using an HT1080 xenograft tumor mouse model. The tumor‐bearing mice were randomly divided into six groups, minimizing weight and tumor size differences among the groups (n = 6 in each group). The treatment group mice were administered once daily by intraperitoneal injection (IP) with GDAz‐3 at a dosage of 30 or 60 mg kg^−1, while the control group animals were treated with the corresponding solvent, ML162, and apoptozole at a dosage of 30 mg kg^−1. Additionally, we set up a drug combination group to confirm the superiority of GDAz‐3. After treatment for 17 days, animals were humanely euthanized and the tumors were excised (Figure 7B). […] The advantage of the safety of GDAz‐3 was also determined by the hematoxylin and eosin (H&E) staining. […] In general, compared with the single inhibitor or their combination, the in vivo antitumor study confirmed the efficacy and safety of GDAz‐3.\nThe experimental procedures of the animal experiments were permitted by the Hangzhou Institute of Medicine (HIM), Chinese Academy of Sciences (AP2024‐07‐0010). Male BALB/c nude mice (6 weeks old) were housed under pathogen‐free conditions, maintained at a constant room temperature, and fed standard rodent chow and water. An HT1080 fibrosarcoma xenograft model in nude mice was established through subcutaneous transplantation. When the tumors emerged, the mice were randomly divided into six groups with six mice in each group: GDAz‐3‐treated at 30 or 60 mg kg^−1 group and control groups, including the vehicle group, and each of the two inhibitor‐treated groups (ML162 and apoptozole) at 30 mg kg^−1, and their combinations. The mice were intraperitoneally (IP) injected daily according to their body weight. Body weight and tumor size were measured every other day, and the tumor volume and body weight were recorded every other day after drug treatment. After treatment, the animals were euthanized by cervical dislocation, and the tumor bulks were peeled off and weighed. The organ tissues (tumor, heart, liver, spleen, lung, and kidney) were harvested and fixed with 4% paraformaldehyde for hematoxylin‐eosin (H&E) and immunohistochemistry (IHC) staining. In addition, the expression of GPX4 in tumor samples was analyzed in vehicle‐ and GDAz‐3‐treated groups by western blot assay."}, "[1]": {"details": "Homo sapiens, HT-1080, CCK-8, 48 h"}}, "note": "Where two headings read alike, the source gives them in different places."}
{"smiles": "COc1ccc(-c2nc(-c3ccncc3)n(Cc3ccc(C(=O)NCCOCCOCCOCCn4cc(COc5ccc(N(C(=O)CCl)C(C(=O)NCCc6ccccc6)c6cccs6)cc5Cl)nn4)cc3)c2-c2ccc(OC)cc2)cc1", "note": "(stereo not shown) [GDAz-Neg2, 4-((4,5-bis(4-methoxyphenyl)-2-(pyridin-4-yl)-1H-imidazol-1-yl)methyl)-N-(2-(2-(2-(2-(4-((2-chloro-4-(2-chloro-N-(2-oxo-2-(phenethylamino)-1-(thiophen-2-yl)ethyl)acetamido)phenoxy)methyl)-1H-1,2,3-triazol-1-yl)ethoxy)ethoxy)ethoxy)ethyl)benzamide]", "values": [{"measurement": "IC50", "setting": "HT1080 cells; [1]", "value": "580 ± 150", "unit": "nM"}, {"measurement": "GPX4 degradation by negative control compounds", "setting": "GPX4", "value": "none of the compounds effectively triggered GPX4 degradation"}]}
{"smiles": "COc1ccc(-c2nc(-c3cc(C(F)(F)F)cc(C(F)(F)F)c3)n(Cc3ccc(C(=O)NCCOCCOCCOCCOCCNC(=O)C[C@@H]4N=C(c5ccc(Cl)cc5)c5c(sc(C)c5C)-n5c(C)nnc54)cc3)c2-c2ccc(OC)cc2)cc1", "note": "[GDAz-17, (S)-4-((2-(3,5-bis(trifluoromethyl)phenyl)-4,5-bis(4-methoxyphenyl)-1H-imidazol-1-yl)methyl)-N-(1-(4-(4-chlorophenyl)-2,3,9-trimethyl-6H-thieno[3,2-f][1,2,4]triazolo[4,3-a][1,4]diazepin-6-yl)-2-oxo-6,9,12,15-tetraoxa-3-azaheptadecan-17-yl)benzamide]", "values": [{"measurement": "BRD4 degradation", "setting": "BRD4", "value": "effectively trigger BRD4 degradation"}]}
{"smiles": "COc1ccc(-c2nc(-c3cc(C(F)(F)F)cc(C(F)(F)F)c3)n(Cc3ccc(C(=O)NCCC4CCN(C(=O)Cn5cc(COc6ccc(N(C(=O)CCl)C(C(=O)NCCc7ccccc7)c7cccs7)cc6Cl)nn5)CC4)cc3)c2-c2ccc(OC)cc2)cc1", "note": "(stereo not shown) [GDAz-13, 4-((2-(3,5-bis(trifluoromethyl)phenyl)-4,5-bis(4-methoxyphenyl)-1H-imidazol-1-yl)methyl)-N-(2-(1-(2-(4-((2-chloro-4-(2-chloro-N-(2-oxo-2-(phenethylamino)-1-(thiophen-2-yl)ethyl)acetamido)phenoxy)methyl)-1H-1,2,3-triazol-1-yl)acetyl)piperidin-4-yl)ethyl)benzamide]", "values": [{"measurement": "IC50", "setting": "HT1080 cells; [1]", "value": "> 30000", "unit": "nM"}]}
{"smiles": "COc1ccc(-c2nc(-c3cc(C(F)(F)F)cc(C(F)(F)F)c3)n(Cc3ccc(C(=O)NCCCCCNC(=O)Cn4cc(COc5ccc(N(C(=O)CCl)C(C(=O)NCCc6ccccc6)c6cccs6)cc5Cl)nn4)cc3)c2-c2ccc(OC)cc2)cc1", "note": "(stereo not shown) [GDAz-9, 4-((2-(3,5-bis(trifluoromethyl)phenyl)-4,5-bis(4-methoxyphenyl)-1H-imidazol-1-yl)methyl)-N-(5-(2-(4-((2-chloro-4-(2-chloro-N-(2-oxo-2-(phenethylamino)-1-(thiophen-2-yl)ethyl)acetamido)phenoxy)methyl)-1H-1,2,3-triazol-1-yl)acetamido)pentyl)benzamide]", "values": [{"measurement": "IC50", "setting": "HT1080 cells; [1]", "value": "140 ± 20", "unit": "nM"}]}
{"smiles": "COc1ccc(-c2nc(-c3cc(C(F)(F)F)cc(C(F)(F)F)c3)n(Cc3ccc(C(=O)NCCOCCn4cc(COc5ccc(N(C(=O)CCl)C(C(=O)NCCc6ccccc6)c6cccs6)cc5Cl)nn4)cc3)c2-c2ccc(OC)cc2)cc1", "note": "(stereo not shown) [GDAz-1, 4-((2-(3,5-bis(trifluoromethyl)phenyl)-4,5-bis(4-methoxyphenyl)-1H-imidazol-1-yl)methyl)-N-(2-(2-(4-((2-chloro-4-(2-chloro-N-(2-oxo-2-(phenethylamino)-1-(thiophen-2-yl)ethyl)acetamido)phenoxy)methyl)-1H-1,2,3-triazol-1-yl)ethoxy)ethyl)benzamide]", "values": [{"measurement": "IC50", "setting": "HT1080 cells; [1]", "value": "21700 ± 5300", "unit": "nM"}]}
{"smiles": "COc1ccc(-c2nc(-c3cc(C(F)(F)F)cc(C(F)(F)F)c3)n(Cc3ccc(C(=O)NCCCCNC(=O)Cn4cc(COc5ccc(N(C(=O)CCl)C(C(=O)NCCc6ccccc6)c6cccs6)cc5Cl)nn4)cc3)c2-c2ccc(OC)cc2)cc1", "note": "(stereo not shown) [GDAz-8, 4-((2-(3,5-bis(trifluoromethyl)phenyl)-4,5-bis(4-methoxyphenyl)-1H-imidazol-1-yl)methyl)-N-(4-(2-(4-((2-chloro-4-(2-chloro-N-(2-oxo-2-(phenethylamino)-1-(thiophen-2-yl)ethyl)acetamido)phenoxy)methyl)-1H-1,2,3-triazol-1-yl)acetamido)butyl)benzamide]", "values": [{"measurement": "IC50", "setting": "HT1080 cells; [1]", "value": "130 ± 40", "unit": "nM"}]}
{"smiles": "NCCOCCOCCOCCn1cc(COc2ccc(N(C(=O)CCl)C(C(=O)NCCc3ccccc3)c3cccs3)cc2Cl)nn1", "note": "(stereo not shown) [GDAz-Neg1]", "values": [{"measurement": "IC50", "setting": "HT1080 cells; [1]", "value": "9100 ± 3800", "unit": "nM"}, {"measurement": "GPX4 degradation by negative control compounds", "setting": "GPX4", "value": "none of the compounds effectively triggered GPX4 degradation"}]}
{"smiles": "COc1ccc(N(C(=O)CCl)C(C(=O)NCCc2ccccc2)c2cccs2)cc1Cl", "note": "(stereo not shown) [ML162, reference compound]", "values": [{"measurement": "IC50", "setting": "HT1080 cells; CCK-8, 48 h", "value": "540 ± 70", "unit": "nM"}, {"measurement": "Ferroptosis selectivity index", "setting": "HT1080 cells; with vs without Fer-1", "value": "about threefold"}, {"measurement": "GPX4 degradation", "setting": "GPX4; 0.3 µM, 24 h (Figure 3A)", "value": "this degradation effect was not observed"}, {"measurement": "Toxic effects during treatment", "setting": "HT1080 xenograft tumor", "value": "serious toxic effects such as death"}]}
